Here are results for 20 compounds from patent US11161839B2, “2-quinolone derived inhibitors of BCL6” (Cancer Research Technology Limited, priority 2017, dated 2021).

For the first experiment, the target named is human BCL6 BTB domain (Trx-6xHis-BCL6) (Homo sapiens (Human), UniProt P41182). Put plainly: HTRF in vitro assay (BCL6 BTB domain / BCOR-AF633 peptide). Type of experiment: binding. As to conditions: further generated data (Table 1b); 1 nM Trx-6xHis-BCL6, 0.5 nM anti-6xHis-Terbium cryptate. In general terms: Time-resolved FRET reads energy transfer from a long-lived donor to a nearby acceptor.
Experimental: The % inhibition at each concentration was calculated by normalising FRET ratio to the appropriate high (DMSO with all reagents) and low (DMSO without BCL6) controls.
As to `CCC(C)(C)Nc1cc(=O)n(C)c2ccc(Nc3cc(C(=O)O)nc(Cl)c3C#N)cc12` [Example 9o, 6-chloro-5-cyano-4-((1-methyl-2-oxo-4-(tert-pentylamino)-1,2-dihydroquinolin-6-yl)amino)picolinic acid], the “HTRF pIC50” value is reported as 6.66. `CC(Nc1cc(=O)n(C)c2ccc(Nc3cc(C(=O)O)nc(Cl)c3C#N)cc12)c1ncc(C2CC2)cn1` (centres unmarked) [Example 9p, 6-chloro-5-cyano-4-((4-((1-(5-cyclopropylpyrimidin-2-yl)ethyl)amino)-1-methyl-2-oxo-1,2-dihydroquinolin-6-yl)amino)picolinic acid]: the “HTRF pIC50” value is given as 7.25. For the compound `CC(Nc1cc(=O)n(Cc2ccccc2)c2ccc(Nc3cc(C(=O)O)nc(Cl)c3C#N)cc12)c1ncccn1` (centres unmarked) [Example 9q, 4-((1-benzyl-2-oxo-4-((1-(pyrimidin-2-yl)ethyl)amino)-1,2-dihydroquinolin-6-yl)amino)-6-chloro-5-cyanopicolinic acid], the “HTRF pIC50” value is 6.81. As for `COc1cc(Nc2ccnc(Cl)c2C#N)cc2c(NC(C)(C)c3ncccn3)cc(=O)n(C)c12` [Example 10r, 2-chloro-4-((8-methoxy-1-methyl-2-oxo-4-((2-(pyrimidin-2-yl)propan-2-yl)amino)-1,2-dihydroquinolin-6-yl)amino)nicotinonitrile], the “HTRF pIC50” value turned out to be 6.32.

On to `CC(Nc1cc(=O)n(C)c2ccc(Nc3ncnc(Cl)c3C#N)cc12)c1ncccn1` (centres unmarked) [Example 10t, 4-chloro-6-((1-methyl-2-oxo-4-((1-(pyrimidin-2-yl)ethyl)amino)-1,2-dihydroquinolin-6-yl)amino)pyrimidine-5-carbonitrile], for which the “HTRF pIC50” value came out at 6.22. For `CC(Nc1cc(=O)n(CC2CCCCC2)c2ccc(Nc3ccnc(Cl)c3C#N)cc12)c1ncccn1` (centres unmarked) [Example 10v, 2-chloro-4-((1-(cyclohexylmethyl)-2-oxo-4-((1-(pyrimidin-2-yl)ethyl)amino)-1,2-dihydroquinolin-6-yl)amino)nicotinonitrile], the “HTRF pIC50” value was found to be 6.17. On the same count and under the same terms, with `Cn1cc(CNC(=O)C(C)(C)Nc2cc(=O)n(C)c3ccc(Nc4ccnc(Cl)c4C#N)cc23)cn1` [Example 11c, 2-((6--((2-chloro-3-cyanopyridin-4-yl)amino)-1-methyl-2-oxo-1,2-dihydroquinolin-4-yl)amino)-2-methyl-N-((1-methyl-1H-pyrazol-4-yl)methyl)propanamide] the figure was 6.42; with `COc1ncc(Cl)c(Nc2ccc3c(c2)c(N[C@H](CO)C2CC2)cc(=O)n3C)n1` [Example 11f, (S)-6-((5-chloro-2-methoxypyrimidin-4-yl)amino)-4-((1-cyclopropyl-2-hydroxyethyl)amino)-1-methylquinolin-2(1H)-one], 6.13. Still for that read-out and setting: next, `COCCOCC(C)Nc1cc(=O)n(C)c2ccc(Nc3ccnc(Cl)c3C#N)cc12` (centres unmarked) [Example 11g, 2-chloro-4-((4-((1-(2-methoxyethoxy)propan-2-yl)amino)-1-methyl-2-oxo-1,2-dihydroquinolin-6-yl)amino)nicotinonitrile]: 6.05; `CC(Nc1nc(=O)n(C)c2ccc(Nc3nc(N4C[C@H](C)C[C@H](C)C4)ncc3Cl)cc12)c1ncccn1` (stereo partly drawn) [Example 12e, 6-((5-chloro-2-((3R,5S)-3,5-dimethylpiperidin-1-yl)pyrimidin-4-yl)amino)-1-methyl-4-((1-(pyrimidin-2-yl)ethyl)amino)quinazolin-2(1H)-one:formic acid (1:1)]: 6.58. Still for that read-out and setting: next, `Cn1c(=O)nc(NC(C)(C)c2ncccn2)c2cc(Nc3nc(N4CCC(F)(F)C(CO)C4)ncc3Cl)ccc21` (centres unmarked) [Example 12i, 6-((5-chloro-2-(4,4-difluoro-3-(hydroxymethyl)piperidin-1-yl)pyrimidin-4-yl)amino)-1-methyl-4-((2-(pyrimidin-2-yl)propan-2-yl)amino)quinazolin-2(1H)-one]: 7.32; `Cc1cc(C)n(-c2ncc(Cl)c(Nc3ccc4c(c3)c(NC(C)c3ncccn3)cc(=O)n4C)n2)n1` (centres unmarked) [Example 14f, 6-((5-chloro-2-(3,5-dimethyl-1H-pyrazol-1-yl)pyrimidin-4-yl)amino)-1-methyl-4-((1-(pyrimidin-2-yl)ethyl)amino)quinolin-2(1H)-one]: 6.49; `Cc1nc(N2CCC(C(=O)N(C)C)CC2)nc(Nc2ccc3c(c2)c(NC(C)(C)c2ncccn2)cc(=O)n3C)c1Cl` [Example 16c, 1-(5-chloro-4-methyl-6-((1-methyl-2-oxo-4((2-(pyrimidin-2-yl)propan-2-yl)amino)-1,2-dihydroquinolin-6-yl)amino)pyrimidin-2-yl)-N,N-dimethylpiperidine-4-carboxamide]: 6.36. `CC(Nc1cc(=O)n(C)c2ncc(Nc3nc(N4CCC(F)(F)CC4)ncc3Cl)cc12)c1ncccn1` (centres unmarked) [Example 17b, 6-((5-chloro-2-(4,4-difluoropiperidin-1-yl)pyrimidin-4-yl)amino)-1-methyl-4-((1-(pyrimidin-2-yl)ethyl)amino)-4,/- naphthyridin-2(1H)-one]: the “HTRF pIC50” value was 6.11. For the compound `C[C@@H]1CN(c2ncc(Cl)c(Nc3ccc4c(c3)c(N[C@H](C)C3CC3)cc(=O)n4C)n2)C[C@H](C)O1` [Example 17d, 6-((5-chloro-2-((2S,6R)-2,6-dimethylmorpholino)pyrimidin-4-yl)amino)-4-(((R)-1-cyclopropylethyl)amino)-1-methylquinolin-2(1H)-one:formic acid (1:1)], the “HTRF pIC50” value is given as 6.19. On the same count and under the same terms, with `CC(Nc1cc(=O)n(C)c2ccc(Nc3nc(N4CCC5(CCCN(C)C5=O)CC4)ncc3Cl)cc12)c1ncccn1` (centres unmarked) [Example 17g, 9-(5-chloro-4-((1-methyl-2-oxo-4((1-(pyrimidin-2-yl)ethyl)amino)-1,2-dihydroquinolin-6-yl)amino)pyrimidin-2-yl)-2-methyl-2,9-diazaspiro[5.5]undecan-1-one] the figure was 6.24. Same read-out and setting: next, `CC(Nc1cc(=O)n(C)c2ccc(Nc3nc(N4CCc5nn(C)cc5C4)ncc3Cl)cc12)c1ncccn1` (centres unmarked) [Example 17k, 6-((5-chloro-2-(2-methyl-2,4,6,7-tetrahydro-5H-pyrazolo[4,3-c]pyridin-5-yl)pyrimidin-4-yl)amino)-1-methyl-4-((1-(pyrimidin-2-yl)ethyl)amino)quinolin-2(1H)-one]: 6.11; `Cc1nccc(Nc2ccc3c(c2)c(NC(C)c2ncccn2)cc(=O)n3C)c1C#N` (centres unmarked) [Example 18a, 2-methyl-4-((1-methyl-2-oxo-4-((1-(pyrimidin-2-yl)ethyl)amino)-1,2-dihydroquinolin-6-yl)amino)nicotinonitrile]: 6.30.

Turning to `CC(Nc1cc(=O)n(C)c2ccc(Nc3ncnc(Cl)c3Cl)cc12)c1ncccn1` (centres unmarked) [Example 19e, 6-((5,6-dichloropyrimidin-4-yl)amino)-1-methyl-4-((1-(pyrimidin-2-yl)ethyl)amino)quinolin-2(1H)-one], the “HTRF pIC50” value came out at 6.05.

The same experiment, now with this note: further generated data (Table 1b); 1 nM Trx-6xHis-BCL6, 0.5 nM anti-6xHis-Terbium cryptate; read-out: HTRF pIC50 (converted).
Turning to `COc1cc(Nc2ccc3c(c2)c(N[C@H](CO)C2CC2)cc(=O)n3C)c(Cl)cn1` [Example 15c, (S)-6-((5-chloro-2-methoxypyridin-4-yl)amino)4-4((1-cyclopropyl-2-hydroxyethyl)amino)-1-methylquinoline-2(1H)-one], the IC50 is 575 nM.
